Laboratory results from patent US20100035755A1, “METHOD OF CONTROLLING WEEDS IN A TURF GRASS BY USING SULFONYLUREA COMPOUNDS” (Moghu Research Center Ltd., priority 2008, published 2010).

Tests used:
[1] = test system: Bentgrass; assay: Turf grass selectivity, greenhouse pot test; format: in vivo, Agrostris palustris
Text: (§1) Turf mats of Zoysia grass, bentgrass, Kentucky bluegrass, or perennial rye grass known as cool season turfgrass or western grass were purchased and cut into a piece having 10 cm×20 cm size. Then, each piece was transplanted in a rectangular plastic pot (surface area of 300 cm^2) in which sandy loam and mixed top soil (Boo-Nong Top Soil No. 3, for horticultural use) are filled in 1:1 ratio. After the transplantation, the grasses were cut once a week to maintain the blade height at 0.5-1.0 cm and cultivated for one month in a green house of which temperature was kept at 25˜30° C. for daytime and 15˜25° C. for nighttime, respectively. Then, the ‘test chemical’ of the above Examples 1 and 2 or ‘control chemical’ was applied thereto in an amount of 400, 200, 100, 50, 25, 12, 6, 3 g ai/ha. As a “control chemical”, pyrazolsulfuron ethyl wettable agent (manufactured by Dongbu Fine Chemicals; herein after, referred to as ‘control chemical No. 1’) and flazasulfuron (manufactured by Dongbu HiTek; herein after, referred to as ‘control chemical No. 2’), both sulfonylurea herbicides for a turf grass, were used. Application was carried out by using a track sprayer (R&D Sprayer, USA) equipped with Teejet 8002 nozzle (Spraying Systems Co., USA), and the application amount was adjusted to 2,000 L/ha, which is a typical application amount for a golf course in Korea. Application solution was prepared by diluting the “test chemical” or the “control chemical” with tap water. […] The test was repeated three times in a random arrangement and the results are given in average value of each test (see Table 2 below).

[2] = test system: Kummerowia striata; assay: Weed spectrum, greenhouse pot test; format: in vivo; conditions: two weeks after application
Text: (§2) To a rectangular plastic pot (surface area of 300 cm^2) in which sandy loam and mixed top soil (Boo-Nong Top Soil No. 3, for horticultural use) are filled in 1:1 ratio, eight different kinds of weed seeds including Poa annua and Digitaria sanguinalis as poaceae weed, Cyperus amuricus as cyperaceae weeds and Trifolium repens, Kummerowia striata, fleabane, Veronica officinalis and Portulaca oleracea as broadleaf weeds were sewn (50 to 100 seeds per each weed). These weeds are representative examples of the weeds which typically thrive in a turf grass field.
(§3) The pot was kept in a greenhouse which was maintained at 25˜30° C. for daytime and 15˜25° C. for nighttime, respectively, and irrigation was carried out regularly. Fourteen days after seeding, when the turf grass and the weeds reached approximately at three-leaf stage, the weed seeds were again sewn in separate two pots or “Test chemical” and “Control chemical” were applied in the same manner as the method described above. In this regard, when plants were cultivated for two weeks and then the chemical application was carried out, it is designated as “post-emergence” treatment. On the other than, when the seeding was carried right before the chemical application, it is designated as “pre-emergence” treatment. Preparation of a chemical solution, application method, etc. are the same as above described for evaluation of turf grass selectivity. Two weeks after the chemical application, efficacy of the chemicals for each type of the weeds was evaluated (visual evaluation) based on 0 to 100 scale (i.e., 0 indicates no efficacy and 100 indicates complete weed control).

[3] = test system: Digitaria sanguinalis; assay: Weed spectrum, greenhouse pot test; format: in vivo; conditions: two weeks after application
Text: as §2, §3

[4] = test system: Cyperus amuricus; assay: Weed spectrum, greenhouse pot test; format: in vivo; conditions: two weeks after application
Text: as §2, §3

[5] = test system: Portulaca oleracea; assay: Weed spectrum, greenhouse pot test; format: in vivo; conditions: two weeks after application
Text: as §2, §3

[6] = test system: Veronica officinalis; assay: Weed spectrum, greenhouse pot test; format: in vivo; conditions: two weeks after application
Text: as §2, §3

[7] = test system: Trifolium repens; assay: Weed spectrum, greenhouse pot test; format: in vivo; conditions: two weeks after application
Text: as §2, §3

[8] = test system: Poa annua; assay: Weed spectrum, greenhouse pot test; format: in vivo; conditions: two weeks after application
Text: as §2, §3

[9] = test system: Kentucky bluegrass; assay: Turf grass selectivity, greenhouse pot test; format: in vivo, Poa pratensis
Text: as §1

## COc1cc(OC)nc(NC(=O)NS(=O)(=O)c2ncccc2C(F)(F)F)n1 [Control chemical No. 2, Flazasulfuron, reference compound]
[1]; 3 g ai/ha, 2 weeks
  phytotoxicity (visual assessment 0-10): 10
[1]; 3 g ai/ha, 4 weeks
  phytotoxicity (visual assessment 0-10): 10
[1]; 6 g ai/ha, 2 weeks
  phytotoxicity (visual assessment 0-10): 10
[1]; 6 g ai/ha, 4 weeks
  phytotoxicity (visual assessment 0-10): 10
[1]; 12 g ai/ha, 2 weeks
  phytotoxicity (visual assessment 0-10): 10
[1]; 12 g ai/ha, 4 weeks
  phytotoxicity (visual assessment 0-10): 10
[1]; 25 g ai/ha, 2 weeks
  phytotoxicity (visual assessment 0-10): 10
[1]; 25 g ai/ha, 4 weeks
  phytotoxicity (visual assessment 0-10): 10
[1]; 50 g ai/ha, 2 weeks
  phytotoxicity (visual assessment 0-10): 10
[1]; 50 g ai/ha, 4 weeks
  phytotoxicity (visual assessment 0-10): 10
[1]; 100 g ai/ha, 2 weeks
  phytotoxicity (visual assessment 0-10): 10
[1]; 100 g ai/ha, 4 weeks
  phytotoxicity (visual assessment 0-10): 10
[1]; 200 g ai/ha, 2 weeks
  phytotoxicity (visual assessment 0-10): 10
[1]; 200 g ai/ha, 4 weeks
  phytotoxicity (visual assessment 0-10): 10
[1]; 400 g ai/ha, 2 weeks
  phytotoxicity (visual assessment 0-10): 10
[1]; 400 g ai/ha, 4 weeks
  phytotoxicity (visual assessment 0-10): 10
[2]; Post-emergence, 12 g ai/ha
  efficacy (0-100 scale): 80
[2]; Post-emergence, 25 g ai/ha
  efficacy (0-100 scale): 90
[2]; Post-emergence, 50 g ai/ha
  efficacy (0-100 scale): 100
[2]; Post-emergence, 100 g ai/ha
  efficacy (0-100 scale): 100
[2]; Pre-emergence, 12 g ai/ha
  efficacy (0-100 scale): 80
[2]; Pre-emergence, 25 g ai/ha
  efficacy (0-100 scale): 90
[2]; Pre-emergence, 50 g ai/ha
  efficacy (0-100 scale): 100
[2]; Pre-emergence, 100 g ai/ha
  efficacy (0-100 scale): 100
[3]; Post-emergence, 12 g ai/ha
  efficacy (0-100 scale): 50
[3]; Post-emergence, 25 g ai/ha
  efficacy (0-100 scale): 70
[3]; Post-emergence, 50 g ai/ha
  efficacy (0-100 scale): 80
[3]; Post-emergence, 100 g ai/ha
  efficacy (0-100 scale): 80
[3]; Pre-emergence, 12 g ai/ha
  efficacy (0-100 scale): 60
[3]; Pre-emergence, 25 g ai/ha
  efficacy (0-100 scale): 70
[3]; Pre-emergence, 50 g ai/ha
  efficacy (0-100 scale): 90
[3]; Pre-emergence, 100 g ai/ha
  efficacy (0-100 scale): 100
[4]; Post-emergence, 12 g ai/ha
  efficacy (0-100 scale): 60
[4]; Post-emergence, 25 g ai/ha
  efficacy (0-100 scale): 70
[4]; Post-emergence, 50 g ai/ha
  efficacy (0-100 scale): 80
[4]; Post-emergence, 100 g ai/ha
  efficacy (0-100 scale): 80
[4]; Pre-emergence, 12 g ai/ha
  efficacy (0-100 scale): 40
[4]; Pre-emergence, 25 g ai/ha
  efficacy (0-100 scale): 70
[4]; Pre-emergence, 50 g ai/ha
  efficacy (0-100 scale): 80
[4]; Pre-emergence, 100 g ai/ha
  efficacy (0-100 scale): 100
[5]; Post-emergence, 12 g ai/ha
  efficacy (0-100 scale): 80
[5]; Post-emergence, 25 g ai/ha
  efficacy (0-100 scale): 90
[5]; Post-emergence, 50 g ai/ha
  efficacy (0-100 scale): 90
[5]; Post-emergence, 100 g ai/ha
  efficacy (0-100 scale): 100
[5]; Pre-emergence, 12 g ai/ha
  efficacy (0-100 scale): 40
[5]; Pre-emergence, 25 g ai/ha
  efficacy (0-100 scale): 60
[5]; Pre-emergence, 50 g ai/ha
  efficacy (0-100 scale): 90
[5]; Pre-emergence, 100 g ai/ha
  efficacy (0-100 scale): 100
[6]; Post-emergence, 12 g ai/ha
  efficacy (0-100 scale): 10
[6]; Post-emergence, 25 g ai/ha
  efficacy (0-100 scale): 20
[6]; Post-emergence, 50 g ai/ha
  efficacy (0-100 scale): 30
[6]; Post-emergence, 100 g ai/ha
  efficacy (0-100 scale): 40
[6]; Pre-emergence, 12 g ai/ha
  efficacy (0-100 scale): 20
[6]; Pre-emergence, 25 g ai/ha
  efficacy (0-100 scale): 30
[6]; Pre-emergence, 50 g ai/ha
  efficacy (0-100 scale): 50
[6]; Pre-emergence, 100 g ai/ha
  efficacy (0-100 scale): 60
[7]; Post-emergence, 12 g ai/ha
  efficacy (0-100 scale): 80
[7]; Post-emergence, 25 g ai/ha
  efficacy (0-100 scale): 100
[7]; Post-emergence, 50 g ai/ha
  efficacy (0-100 scale): 100
[7]; Post-emergence, 100 g ai/ha
  efficacy (0-100 scale): 100
[7]; Pre-emergence, 12 g ai/ha
  efficacy (0-100 scale): 70
[7]; Pre-emergence, 25 g ai/ha
  efficacy (0-100 scale): 80
[7]; Pre-emergence, 50 g ai/ha
  efficacy (0-100 scale): 100
[7]; Pre-emergence, 100 g ai/ha
  efficacy (0-100 scale): 100
[8]; Post-emergence, 12 g ai/ha
  efficacy (0-100 scale): 40
[8]; Post-emergence, 25 g ai/ha
  efficacy (0-100 scale): 70
[8]; Post-emergence, 50 g ai/ha
  efficacy (0-100 scale): 80
[8]; Post-emergence, 100 g ai/ha
  efficacy (0-100 scale): 90
[8]; Pre-emergence, 12 g ai/ha
  efficacy (0-100 scale): 40
[8]; Pre-emergence, 25 g ai/ha
  efficacy (0-100 scale): 70
[8]; Pre-emergence, 50 g ai/ha
  efficacy (0-100 scale): 100
[8]; Pre-emergence, 100 g ai/ha
  efficacy (0-100 scale): 100
[9]; 3 g ai/ha, 2 weeks
  phytotoxicity (visual assessment 0-10): 10
[9]; 3 g ai/ha, 4 weeks
  phytotoxicity (visual assessment 0-10): 10
[9]; 6 g ai/ha, 2 weeks
  phytotoxicity (visual assessment 0-10): 10
[9]; 6 g ai/ha, 4 weeks
  phytotoxicity (visual assessment 0-10): 10
[9]; 12 g ai/ha, 2 weeks
  phytotoxicity (visual assessment 0-10): 10
[9]; 12 g ai/ha, 4 weeks
  phytotoxicity (visual assessment 0-10): 10
[9]; 25 g ai/ha, 2 weeks
  phytotoxicity (visual assessment 0-10): 10
[9]; 25 g ai/ha, 4 weeks
  phytotoxicity (visual assessment 0-10): 10
[9]; 50 g ai/ha, 2 weeks
  phytotoxicity (visual assessment 0-10): 10
[9]; 50 g ai/ha, 4 weeks
  phytotoxicity (visual assessment 0-10): 10
[9]; 100 g ai/ha, 2 weeks
  phytotoxicity (visual assessment 0-10): 10
[9]; 100 g ai/ha, 4 weeks
  phytotoxicity (visual assessment 0-10): 10
[9]; 200 g ai/ha, 2 weeks
  phytotoxicity (visual assessment 0-10): 10
[9]; 200 g ai/ha, 4 weeks
  phytotoxicity (visual assessment 0-10): 10
[9]; 400 g ai/ha, 2 weeks
  phytotoxicity (visual assessment 0-10): 10
[9]; 400 g ai/ha, 4 weeks
  phytotoxicity (visual assessment 0-10): 10
